Assay type in all cases: physicochemical
Series [1] is described as follows: Ratio of dry weight to wet weight (Dry/Wet) of filtered solids. The settings on record: wet solids weighed after filtration, before drying. The source says: As used herein, the term “Dry/Wet” and “ratio of dry weight to wet weight” can be used interchangeably, both of which refer to the ratio of the weight of a compound without solvent(s) to the weight of the compound with solvent(s). In the present invention, wet weight of crystals is obtained by filtering the crystallized solids until no noticeable droplet outflows and weighing the solids.

Series [2] in a line: Vacuum-drying at 25° C. with a water system until no organic solvent detected by GC; purity by HPLC. The settings on record: for time Needed (for drying): 25° C., vacuum-drying with a water system until no organic solvent detected by GC; for Purity before drying / Purity after drying: HPLC; for Purity before drying: 5 g of solids; for Purity after drying: vacuum-dried at 25° C. with a water system until no organic solvent detected by GC. An excerpt: High performance liquid chromatography (HPLC) is a common method for determining the purity of a compound, wherein a liquid is used as the mobile phase and a high-pressure transfusion system is used for pumping the mobile phase, such as single solvents with different polarities, a mixture of solvents at different proportions, or buffers, into a column packed with a stationary phase. Each component is separated in the column, and then enters into a detector for detection, thereby analyzing a sample. In the present invention, HPLC is used for determining the purity of the compound of formula I and studying the stability of a sample. Conditions of the HPLC method are listed as follows:
Analysis Column: YMC-ODS 250×4.6 mm, 5 μm;
Mobile phase: acetonitrile:phosphate buffer (pH 3.0)=45:70;
Column temperature: 35° C.;
Diluent: aqueous phosphate buffer;
Detection wavelength: 210 nm;
Gas chromatography (GC) used to separate and measure trace impurities in a compound is an accurate, qualitative and quantitative method of analysis. In the present invention, the content of organic solvents in the crystalline powder of the compound of formula I obtained in the present invention is measured by gas chromatography (GC).
5 g of solids were prepared according to the methods of Examples 2-10 and Comparative Examples 1-3 respectively, placed at 25° C., and vacuum-dried together with a water system until no organic solvent was detected through GC. The time for drying was compared, and the purity of the sample was analyzed.

Series [3] in a line: Bulk density of powder by cylinder measurement. The settings on record: after drying. The procedure:
“Bulk density of powder” is a measurement standard for the relative importance of the interaction between microparticles by comparing the bulk density and tapped density of the powder. Methods for measuring bulk density of powder are known in the art; for example, it can be determined by cylinder measurement, volumetric measurement, and container measurement. Bulk density of the crystalline powder of the compound of formula I according to the present invention is determined as less than 0.7 g/mL, preferably less than 0.6 g/mL, most preferably less than 0.5 g/mL, by cylinder measurement.

The nature of series [4]: Particle size distribution (d10, d50) by Malvern particle size analyzer / laser diffraction. The settings on record: after drying. The method, then: […] Wherein, d10 and d50 are means known for indicating the particle size distribution. d50 refers to a value of particle size, and the size of 50 vol/% of particles is smaller than said value. D10 refers to a value of particle size, and the size of 10 vol/% of particles is smaller than said value. The preferred method for determining d10 and d50 is laser diffraction, d50 of the crystalline powder of the compound of formula I according to the present invention is determined as 10-100 um, and d10 is determined as 1-9 um. Preferably, d50 of the crystalline powder is 20-50 um, and d10 thereof is 1-5 um. Before solid-liquid separation, d50 of the crystalline powder of the compound of formula I is 10-100 um, and d10 thereof is 1-9 um. Preferably, d50 of the crystalline powder is 20-50 um, and d10 thereof is 3-6 um.

Starred links: 1 amine or outer side, 2 acyl side, 3 side chain; linkers in the order of their positions; H or OH if unused. Positions of bridges follow the written chain, without caps; N, C: chain ends. Non-standard residues stand in square brackets, D forms with d. Residues, ends and D or L forms follow the SMILES beside them. *: point of attachment. hTyr(3S-OH,4S-OH,3'-OSO3H) = N[C@H](C(=O)O)[C@H](O)[C@@H](O)c1ccc(O)c(OS(=O)(=O)O)c1; Orn(4R-OH,5R-OH) = O=C([C@H](C[C@@H](O)[C@@H](O)N[*:3])N[*:1])[*:2]; Pro(3S-OH,4S-Me) = C[C@H]1CN[C@H](C(=O)O)[C@H]1O; X1 = CCCCCOc1ccc(-c2cc(-c3ccc(C(=O)*)cc3)no2)cc1; Gln(3R-OH) = NC(=O)C[C@@H](O)[C@H](N)C(=O)O; Hyp = O=C(O)[C@@H]1C[C@@H](O)CN1

Take `CCCCCOc1ccc(-c2cc(-c3ccc(C(=O)N[C@H]4C[C@@H](O)[C@@H](O)NC(=O)[C@@H]5[C@@H](O)[C@@H](C)CN5C(=O)[C@H]([C@H](O)CC(N)=O)NC(=O)[C@H]([C@H](O)[C@@H](O)c5ccc(O)c(OS(=O)(=O)[O-])c5)NC(=O)[C@@H]5C[C@@H](O)CN5C(=O)[C@H]([C@@H](C)O)NC4=O)cc3)no2)cc1.[Na+]` [Example 2] (X1-[Orn(4R-OH,5R-OH)]T[Hyp][hTyr(3S-OH,4S-OH,3'-OSO3H)][Gln(3R-OH)][Pro(3S-OH,4S-Me)]; lactam 1-C): the “ratio of dry weight to wet weight (Dry/Wet)” value (from here on “ratio … (Dry/Wet)”) in series [1] stood at 0.45. Moreover, in series [2], the “time Needed (for drying)” value turned out to be 7 h, the Purity before drying worked out at 99.68% and the Purity after drying was 99.68%. For the same molecule, the Bulk density in series [3] came to 0.45 g/mL. Besides, in series [4], the “d10, particle size of the crystalline powder” value (shortened to “d10, particle size”) is on record as 3 um and the “d50, particle size of the crystalline powder” value (“d50, particle size” below) is given as 31.9 um.

For `CCCCCOc1ccc(-c2cc(-c3ccc(C(=O)N[C@H]4C[C@@H](O)[C@@H](O)NC(=O)[C@@H]5[C@@H](O)[C@@H](C)CN5C(=O)[C@H]([C@H](O)CC(N)=O)NC(=O)[C@H]([C@H](O)[C@@H](O)c5ccc(O)c(OS(=O)(=O)[O-])c5)NC(=O)[C@@H]5C[C@@H](O)CN5C(=O)[C@H]([C@@H](C)O)NC4=O)cc3)no2)cc1.[Na+]` [Example 3] (X1-[Orn(4R-OH,5R-OH)]T[Hyp][hTyr(3S-OH,4S-OH,3'-OSO3H)][Gln(3R-OH)][Pro(3S-OH,4S-Me)]; lactam 1-C), in series [1], the “ratio … (Dry/Wet)” value is 0.52. Moreover, in series [2], the “time Needed (for drying)” value is recorded as 6.5 h, the Purity before drying worked out at 99.63% and the Purity after drying stood at 99.61%. Besides, the Bulk density in series [3] is listed as 0.43 g/mL. In series [4], the “d10, particle size” value turned out to be 3.7 um and the “d50, particle size” value is 43.1 um.

Take `CCCCCOc1ccc(-c2cc(-c3ccc(C(=O)N[C@H]4C[C@@H](O)[C@@H](O)NC(=O)[C@@H]5[C@@H](O)[C@@H](C)CN5C(=O)[C@H]([C@H](O)CC(N)=O)NC(=O)[C@H]([C@H](O)[C@@H](O)c5ccc(O)c(OS(=O)(=O)[O-])c5)NC(=O)[C@@H]5C[C@@H](O)CN5C(=O)[C@H]([C@@H](C)O)NC4=O)cc3)no2)cc1.[Na+]` [Example 4] (X1-[Orn(4R-OH,5R-OH)]T[Hyp][hTyr(3S-OH,4S-OH,3'-OSO3H)][Gln(3R-OH)][Pro(3S-OH,4S-Me)]; lactam 1-C): in series [1], the “ratio … (Dry/Wet)” value came to 0.61. Further, in series [2], the “time Needed (for drying)” value stood at 9 h, the Purity before drying was determined as 99.64% and the Purity after drying was 99.64%. Besides, in series [3], the Bulk density is on record as 0.55 g/mL. Further, in series [4], the “d10, particle size” value is 5.1 um and the “d50, particle size” value is recorded as 50 um.

On to `CCCCCOc1ccc(-c2cc(-c3ccc(C(=O)N[C@H]4C[C@@H](O)[C@@H](O)NC(=O)[C@@H]5[C@@H](O)[C@@H](C)CN5C(=O)[C@H]([C@H](O)CC(N)=O)NC(=O)[C@H]([C@H](O)[C@@H](O)c5ccc(O)c(OS(=O)(=O)[O-])c5)NC(=O)[C@@H]5C[C@@H](O)CN5C(=O)[C@H]([C@@H](C)O)NC4=O)cc3)no2)cc1.[Na+]` [Example 5] (X1-[Orn(4R-OH,5R-OH)]T[Hyp][hTyr(3S-OH,4S-OH,3'-OSO3H)][Gln(3R-OH)][Pro(3S-OH,4S-Me)]; lactam 1-C), for which, in series [1], the “ratio … (Dry/Wet)” value came to 0.66. Besides, in series [2], the “time Needed (for drying)” value turned out to be 10 h, the Purity before drying is on record as 99.52% and the Purity after drying is 99.47%. The Bulk density in series [3] is recorded as 0.6 g/mL. Besides, in series [4], the “d10, particle size” value worked out at 9 um and the “d50, particle size” value is 97.7 um.

Turning to `CCCCCOc1ccc(-c2cc(-c3ccc(C(=O)N[C@H]4C[C@@H](O)[C@@H](O)NC(=O)[C@@H]5[C@@H](O)[C@@H](C)CN5C(=O)[C@H]([C@H](O)CC(N)=O)NC(=O)[C@H]([C@H](O)[C@@H](O)c5ccc(O)c(OS(=O)(=O)[O-])c5)NC(=O)[C@@H]5C[C@@H](O)CN5C(=O)[C@H]([C@@H](C)O)NC4=O)cc3)no2)cc1.[Na+]` [Example 6] (X1-[Orn(4R-OH,5R-OH)]T[Hyp][hTyr(3S-OH,4S-OH,3'-OSO3H)][Gln(3R-OH)][Pro(3S-OH,4S-Me)]; lactam 1-C), the “ratio … (Dry/Wet)” value in series [1] is 0.6. Further, in series [2], the “time Needed (for drying)” value was 8.5 h, the Purity before drying is given as 99.61% and the Purity after drying was found to be 99.6%. Moreover, the Bulk density in series [3] is 0.49 g/mL. In addition, in series [4], the “d50, particle size” value is 48.7 um.

For `CCCCCOc1ccc(-c2cc(-c3ccc(C(=O)N[C@H]4C[C@@H](O)[C@@H](O)NC(=O)[C@@H]5[C@@H](O)[C@@H](C)CN5C(=O)[C@H]([C@H](O)CC(N)=O)NC(=O)[C@H]([C@H](O)[C@@H](O)c5ccc(O)c(OS(=O)(=O)[O-])c5)NC(=O)[C@@H]5C[C@@H](O)CN5C(=O)[C@H]([C@@H](C)O)NC4=O)cc3)no2)cc1.[Na+]` [Example 7] (X1-[Orn(4R-OH,5R-OH)]T[Hyp][hTyr(3S-OH,4S-OH,3'-OSO3H)][Gln(3R-OH)][Pro(3S-OH,4S-Me)]; lactam 1-C), the “ratio … (Dry/Wet)” value in series [1] is on record as 0.69. Moreover, in series [2], the “time Needed (for drying)” value is recorded as 9.5 h, the Purity before drying turned out to be 99.65% and the Purity after drying is reported as 99.57%. This molecule returned a Bulk density in series [3] of 0.6 g/mL. In series [4], the “d10, particle size” value is given as 1 um and the “d50, particle size” value was 10 um.

Take `CCCCCOc1ccc(-c2cc(-c3ccc(C(=O)N[C@H]4C[C@@H](O)[C@@H](O)NC(=O)[C@@H]5[C@@H](O)[C@@H](C)CN5C(=O)[C@H]([C@H](O)CC(N)=O)NC(=O)[C@H]([C@H](O)[C@@H](O)c5ccc(O)c(OS(=O)(=O)[O-])c5)NC(=O)[C@@H]5C[C@@H](O)CN5C(=O)[C@H]([C@@H](C)O)NC4=O)cc3)no2)cc1.[Na+]` [Example 8] (X1-[Orn(4R-OH,5R-OH)]T[Hyp][hTyr(3S-OH,4S-OH,3'-OSO3H)][Gln(3R-OH)][Pro(3S-OH,4S-Me)]; lactam 1-C): the “ratio … (Dry/Wet)” value in series [1] stood at 0.45. In series [2], the “time Needed (for drying)” value was 6 h, the Purity before drying is listed as 99.52% and the Purity after drying worked out at 99.46%. Further, the Bulk density in series [3] is 0.38 g/mL. In addition, in series [4], the “d10, particle size” value is reported as 2.6 um and the “d50, particle size” value turned out to be 18.7 um.

Take `CCCCCOc1ccc(-c2cc(-c3ccc(C(=O)N[C@H]4C[C@@H](O)[C@@H](O)NC(=O)[C@@H]5[C@@H](O)[C@@H](C)CN5C(=O)[C@H]([C@H](O)CC(N)=O)NC(=O)[C@H]([C@H](O)[C@@H](O)c5ccc(O)c(OS(=O)(=O)[O-])c5)NC(=O)[C@@H]5C[C@@H](O)CN5C(=O)[C@H]([C@@H](C)O)NC4=O)cc3)no2)cc1.[Na+]` [Example 9] (X1-[Orn(4R-OH,5R-OH)]T[Hyp][hTyr(3S-OH,4S-OH,3'-OSO3H)][Gln(3R-OH)][Pro(3S-OH,4S-Me)]; lactam 1-C): the “ratio … (Dry/Wet)” value in series [1] turned out to be 0.62. In addition, in series [2], the “time Needed (for drying)” value turned out to be 8.5 h, the Purity before drying is reported as 99.42% and the Purity after drying is listed as 99.38%. Further, the Bulk density in series [3] is 0.54 g/mL. Further, in series [4], the “d10, particle size” value is recorded as 1.3 um and the “d50, particle size” value is given as 20 um.

Source of the values: patent US10138275B2, “Crystalline powder of cyclic peptide compound, preparation method for same, and uses thereof” (SHANGHAI TECHWELL BIOPHARMACEUTICAL CO., LTD, priority 2014, dated 2018).
